Assay results from US4022912A, “Use of 1-decarboxy-1-hydroxymethyl-PGE1 in therapeutic bronchodilation” (priority 1976, dated 1977).
Read-outs that look alike come from different tables or passages of the source.

Legend:
bronchodilation = conditions: inhalational administration to guinea pigs; cited from earlier work
bronchial smooth muscle = conditions: by inhalation or intravenously; cited from earlier work
[1] = test system: Guinea Pig Tracheal Tissue; assay: Relaxation of guinea pig tracheal tissue in vitro; format: cell-based; conditions: Table B, standard error in parentheses
Experimental: Male guinea pigs weighing 200-500 g were killed by a blow on the head. A 20 mm length of trachea was dissected from each of the animals, transferred to a petri dish containing Krebs' solution aerated with 95% O2 and 5% CO2 at 37° C., and cut longitudinally opposite the tracheal muscle. The tissue was then cut transversely three quarters of the distance across; a second cut in the opposite direction again three quarters of the distance across the tissue was made, and the procedure was continued for the whole tissue. The ends of the trachea were pulled to form a zig-zag shaped strip. The tracheal strips used in the experiment were approximately 30 mm when extended under 0.25-0.5 g load in a tissue bath. Cotton thread was tied to one end of the tissues, and linen thread to the other. The tissues were attached via the linen thread to a glass hook in a 5 ml isolated tissue bath containing Krebs' solution at 37° C. aerated with a mixture of 95% O2 and 5% CO2. The opposite ends were attached via cotton thread to an isotonic transducer. The load on the transducer lever was small, usually 0.3 g, with a range of 0.25-0.5 g; and the magnification high, 80-fold using an appropriate twin-channel pen recorder. A minimum of thirty minutes was allowed before applying a drug to the tissues. Drugs were then applied (in volumes of 0.5 ml) at thirty minute intervals, being in contact with the tissue for five minutes followed by an overflow washout time of twenty seconds.

tracheal smooth muscle [2] = conditions: isolated from a guinea pig; cited from earlier work
tracheal smooth muscle [3] = conditions: isolated from a human; cited from earlier work
[4] = test system: Histamine-Induced Bronchoconstriction; assay: Inhibition of histamine-induced bronchoconstriction in the anesthetized guinea pig in vivo by intravenous administration; conditions: Cavia porcellus, iv, i.v. 15 seconds prior to histamine
Experimental: (§1) Male albino guinea pigs (400-600 g; Dunkin-Hartley Strain) were anesthetized with pentobarbitone sodium (60 mg/kg intraperitoneally).
(§2) Trachea, external jugular vein and carotid artery were cannulated for recording ventilation, intravenous administration of drugs, and blood pressure respectively. The animals were artificially respired throughout the experiment. Electrocardiograms were also recorded. Respiratory flow was charted on a twin-channel recorder fixed to an SE differential pressure transducer.
(§3) Histamine was administered intravenously at 5 minute intervals. The test drug was administered intravenously 15 seconds prior to histamine in order to inhibit bronchoconstriction.

[5] = test system: Histamine-Induced Bronchoconstriction; assay: Inhibition of intravenous histamine-induced bronchoconstriction in the anesthetized guinea pig by inhalational administration; format: in vivo; conditions: 0.001 μg/ml in stock solution aerosolized; inhalation
Experimental: as §1, §2, §3
Details of the procedure of this example are the same as those in preceding Example 2 with the exception that the test compounds were delivered in aerosol form into the trachea of the test aminals.

[6] = test system: Convulsions Induced by Inhaled Histamine; assay: Delay of convulsions induced by inhaled histamine in conscious guinea pigs; format: in vivo, guinea pig
Experimental: Conscious male albino guinea pigs (Dunkin-Hartley strain) weighing 200-300 g were placed (singly) in a 5-liter transparent chamber for 1 minute and subjected to an aerosol of vehicle or test drug in solution, plus histamine (1% w/v).
The time from the beginning of the administration of the aerosol to the start of the first convulsion (when the guinea pig is immediately removed from the aerosol) is the pre-convulsion time. Twenty-four hours later the general procedure was repeated. Guinea pigs treated with the test drug on the first day were treated with vehicle on the second day and vice versa in a cross-over design. Maximum time allowed in the aerosol was 10 minutes. An ultrasonic humidifier was used to produce the aerosol.

CCCCC[C@H](O)/C=C/[C@H]1[C@H](O)CC(=O)[C@@H]1CCCCCCC(=O)O [PGE1, 11α,15α-dihydroxy-9-oxo-13-trans-prostenoic acid]
bronchodilation compared with isoprenaline (bronchodilation): superior to that induced by isoprenaline | relaxation of bronchial smooth muscle in vivo (bronchial smooth muscle): relaxes bronchial smooth muscle in vivo | Relaxation (×80) (± S.E.) ([1]; 0.001 μg/ml): 0 mm | Relaxation (×80) (± S.E.) ([1]; 0.010 μg/ml): 24 (1) mm | Relaxation (×80) (± S.E.) ([1]; 0.100 μg/ml): 46 (19) mm | Relaxation (×80) (± S.E.) ([1]; 1.000 μg/ml): 75 (17) mm | Relaxation (×80) (± S.E.) ([1]; 10.000 μg/ml): 75 (65) mm | relaxation of isolated tracheal smooth muscle (tracheal smooth muscle [2]): relaxes tracheal smooth muscle | relaxation of isolated tracheal smooth muscle (tracheal smooth muscle [3]): relaxes tracheal smooth muscle | ED50 ([4]; Experiment No. 1, read-out: Dose I.V. inhibiting bronchoconstriction by 50% (ID50)): 0.603 µg/kg | ED50 ([4]; Experiment No. 2, read-out: Dose I.V. inhibiting bronchoconstriction by 50% (ID50)): 0.966 µg/kg | ED50 ([4]; Experiment No. 3, read-out: Dose I.V. inhibiting bronchoconstriction by 50% (ID50)): 0.263 µg/kg | ED50 ([4]; Experiment No. 4, read-out: Dose I.V. inhibiting bronchoconstriction by 50% (ID50)): 0.864 µg/kg | ED50 ([4]; Experiment No. 5, read-out: Dose I.V. inhibiting bronchoconstriction by 50% (ID50)): 0.202 µg/kg | ED50 ([4]; mean of experiments 1-5, read-out: Dose I.V. inhibiting bronchoconstriction by 50% (ID50), Mean): 0.579 µg/kg | Precent Inhibition of Histamine-Induced Bronchoconstriction [5]: 6% | Prolongation of Preconvulsion Time ([6]; Expt. 1B, 0.50 μg/ml stock solution aerosolized, P <0.1): 77 s | Prolongation of Preconvulsion Time ([6]; Expt. 1B, 2.50 μg/ml stock solution aerosolized, P <0.001): 225 s | Prolongation of Preconvulsion Time ([6]; Expt. 1B, 5.00 μg/ml stock solution aerosolized, N.S. at P ≤ 0.05): 139 s | Prolongation of Preconvulsion Time ([6]; Expt. 1B, 10.00 μg/ml stock solution aerosolized, N.S. at P ≤ 0.05): 267 s | Prolongation of Preconvulsion Time ([6]; Expt. 2B, 0.10 μg/ml stock solution aerosolized, N.S. at P ≤ 0.05): 495 s | Prolongation of Preconvulsion Time ([6]; Expt. 2B, 0.50 μg/ml stock solution aerosolized, P <0.01): 274 s | Prolongation of Preconvulsion Time ([6]; Expt. 2B, 1.00 μg/ml stock solution aerosolized, P <0.01): 294 s | Prolongation of Preconvulsion Time ([6]; Expt. 2B, 5.00 μg/ml stock solution aerosolized, N.S. at P ≤ 0.05): 664 s
